From US7067545B1, “Remedies for spinocerebellar ataxia and compositions for treating spinocerebellar ataxia” (Meiji Seika Kaisha Ltd., priority 1998, dated 2006)
Read-outs that look alike come from different tables or passages of the source.

How the values were obtained:
[1] = test system: drug induced ataxia mice; experiment: Effect on drug induced (cytosine arabinoside) ataxia mice, open-field test; assay type: in vivo; settings: for Falling Index (falling score/movement score) / Movement Score: 30 min after administration, observed 30 min, mean ± standard error
Description: Ataxia mice prepared by repeated administration of cytosine arabinoside 50 mg/kg into male mice, 1, 2 and 3-day old, respectively, were used at 6-7-week old in the experiments (Simada, M. et al. Arch. Neurol., 32, 555-559, 1975 and Matsui, K. et al. Exp. Anim., 32, 13-19, 1983).
Improving effects of drugs on ataxia were evaluated according to the methods of Yamamoto et al. (Yamamoto and Shimizu, Eur. J. Pharmacol. 1.66, 295-297, 1989) and Matsui et al. (Matsui et al. Eur. J. Pharmacol., 254, 295-297, 1994; Neurosci. Lett., 212, 115-118, 1996) as follows.
(§1) The open-field apparatus with a 70 cm square filed surrounded by a 15 cm high wall was used. The floor of the field was marked out into 49 equal grids (each grid 10 cm×10 cm). At 30 minutes after administration of drug intraperitoneally into mice, each mouse was placed in the field and was monitored for behavior for 30 minutes. Observed items were as follows. Numbers of crossing lines of the grids by mouse were set as “movement score” and numbers of slipping the hindlimbs were set as “falling score”. Each score was measured simultaneously. Ratio of both scores (falling score/movement score) is expressed as “falling index”.
Drugs used were D-serine ethyl ester, 10, 50 and 250 mg/kg, respectively, D-cycloserine, 2, 10 and 50 mg/kg, respectively, and L-serine ethyl ester, 250 mg/kg. Physiological saline was used as control. Each drug and saline were administered intraperitoneally.

[2] = mouse, in vivo, cited from earlier work
[3] = test system: genetic mutant ataxia mice, reeler mice; experiment: Effect on genetic mutant ataxia mice (reeler mice), open-field test; assay type: in vivo; settings: 250 mg/kg i.p., mean ± standard error
Description: as §1
Genetic mutant ataxia mice, reeler mice (Heckroth, J. A. et al. J. Comp. Neurol., 279, 546-555, 1989 and Hamburgh, Dev. Biol., 8, 165-185, 1963) were purchased from Jackson Laboratory (Bar Harbor, Me., USA). Homozygotes were obtained by mating of heterozygote pairs. The homozygote male mice, 6-7 weeks old, were used for the experiments.
Experimental method for evaluation of ataxia was performed as same as in example 1. In the drug administered group, D-serine ethyl ester 250 mg/kg was administered intraperitoneally. For control group, physiological saline was administered.

[4] = 10 mg/kg i.p., listed as D-Cycloserine
[5] = 50 mg/kg i.p., listed as D-Cycloserine
[6] = 50 mg/kg i.p., listed as D-Serine Ethyl ester
[7] = 250 mg/kg i.p., listed as D-Serine Ethyl ester

N[C@@H]1CON=C1O [D-cycloserine]
Falling Index (falling score/movement score) ([1]; 2 mg/kg i.p.): 0.80 ± 0.07
Movement Score ([1]; 2 mg/kg i.p.): 117 ± 54
Falling Index (falling score/movement score) ([1]; 10 mg/kg i.p.): Significant decrease
Movement Score ([1]; 10 mg/kg i.p.): no significant effect
Falling Index (falling score/movement score) [1, 4]: 0.69 ± 0.09
Movement Score [1, 4]: 194 ± 71
Falling Index (falling score/movement score) ([1]; 50 mg/kg i.p.): Significant decrease
Movement Score ([1]; 50 mg/kg i.p.): no significant effect
Falling Index (falling score/movement score) [1, 5]: 0.62 ± 0.04
Movement Score [1, 5]: 286 ± 98
improved action on ataxia ([1]; below 50 mg/kg (i.p.) in mice): dose dependent manner
LD50 ([2]; ip): approx. 2,900 mg/kg
LD50 ([2]; iv): approx. 1,800 mg/kg
LD50 ([2]; po): approx. 5,300 mg/kg
LD50 ([2]; sc): approx. 2,800 mg/kg

CCOC(=O)[C@@H](N)CO [L-serine ethyl ester]
Falling Index (falling score/movement score) ([1]; 250 mg/kg i.p.): No improved action on ataxia
Movement Score ([1]; 250 mg/kg i.p.): 129 ± 27
Falling Index (falling score/movement score) ([1]; 250 mg/kg i.p., listed as L-Serine Ethyl ester): 0.80 ± 0.06

CCOC(=O)[C@H](N)CO [D-serine ethyl ester]
Falling Index (falling score/movement score) ([1]; 10 mg/kg i.p.): 0.88 ± 0.09
Movement Score ([1]; 10 mg/kg i.p.): 386 ± 113
Falling Index (falling score/movement score) ([1]; 50 mg/kg i.p.): Significant decrease
Movement Score ([1]; 50 mg/kg i.p.): no significant effect
Falling Index (falling score/movement score) [1, 6]: 0.66 ± 0.08
Movement Score [1, 6]: 366 ± 96
Falling Index (falling score/movement score) ([1]; 250 mg/kg i.p.): Significant decrease
Movement Score ([1]; 250 mg/kg i.p.): no significant effect
Falling Index (falling score/movement score) [1, 7]: 0.56 ± 0.06
Movement Score [1, 7]: 412 ± 99
Falling Index (falling score/movement score) [3]: Improved effect on ataxia
Movement Score [3]: No effect
Falling Index (falling score/movement score) ([3]; listed as D-Serine Ethyl ester): 0.24 ± 0.05
Movement Score ([3]; listed as D-Serine Ethyl ester): 232 ± 66
